Key:
washed platelets [1] = test: Partial agonistic activity (shape change of rat platelets); type: cell-based; details: Platelet, decrease in light transmission by test compound itself, 50% of maximal agonistic activity of reference compound, read-out: Activity of Partial Agonist EC50
Protocol: (§1) From the abdominal artery of a male rat (Sprague-Dowley, 8 weeks old) was collected 10 ml of blood with a plastic syringe containing 1.5 ml of ACD (85 mM of sodium citrate, 70 mM of citric acid, 110 mM of glucose) and 20 μg of prostaglandin E1. The blood is placed in a plastic test tube, shaken moderately turning and centrifuged for 10 minutes at 160×g to give platelet rich plasma (PRP). To the prepared PRP was added apyrase (25 μg/ml) and the mixture was layered on 40% bovine serum albumin. The resulting mixture is centrifuged at 1200×g for 25 minutes. The platelet pellets suspended in a small amount of a buffer (137 mM of NaCl, 2.7 mM of KCl, 1.0 mM of MgCl2, 3.8 mM of NaH2 PO4, 3.8 mM of Hepes, 5.6 mM of glucose, 0.035% of bovine serum albumin, pH 7.35) was applied on 10 ml of Sephaose 2B column and eluted with such a buffer to prepare washed platelets.
(§2) The platelet aggregation reaction was measured by an aggregometer (NKK HEMA TRACER 1 MODEL PAT-6A.6M, Niko bioscience). In a measuring cuvette was placed 245 μl of the washed platelets of which platelet concentration was adjusted to 5×10^5 / μl and set in the aggregometer. The adjusted washed platelet was stirred (1000 rpm) at 37° C. and 3.8 μl of 0.1M of CaCl2 was added thereto. One minute later, 0.5 μl of a solution of a test compound in dimethylsulfoxide was added and 2 minutes later, 1 μl of collagen (Collagen reagent Horm®, HORMON-CHEMIE Munchen GMBH, final concentration 4 μg/ml) as an inducer for platelet aggregation was added. The platelet aggregation was monitored with an aggregometer in terms of the increase and decrease in light transmission.
The measurement of partial agonistic activity was carried out according to the method shown for platelet aggregation. To the washed platelets was added 0.1M of CaCl2 and one minute later a test compound was added thereto. The decrease in light transmission caused by the test compound itself was measured to estimate the activity.

washed platelets [2] = test: Inhibitory effect on collagen-induced platelet aggregation (antagonistic activity), rat washed platelets; type: cell-based; details: 0.05 h, collagen 4 μg/ml as inducer, light transmission 3 minutes after inducer, read-out: Inhibition for Platelet Aggregation IC50
Protocol: as §1, §2
Concentration of 50% inhibition was calculated from the inhibitory rate of aggregation (this correspondes to light transmission of a sample which is measured at 3 minutes after the addition of a platelet aggregating inducer, provided that light transmissions of the washed platelets and the buffer samples are taken as 0% and 100%, respectively.)

[3] = Acute toxicity, intravenous, mice; details: mouse, in vivo, male SclddY mice, tail vein injection in saline, mortality within 24 hours, Probit method
Protocol: Male SclddY mice (4-weekage, 23-27 g) were used. Each experimental group consists of 5 animals. After injecting the test compound dissolved in saline into a tial vein, the mortality within 24 hours was obtained as an LD50 value by the Probit method.

Row | SMILES | EC50 (washed platelets [1]) [nM] | IC50 (washed platelets [2]) [nM] | LD50 at 24 h [3] [mg/kg]
1 | O=C(O)CCC/C=C\[C@H]1[C@@H]2CC[C@@H](C2)[C@@H]1NS(=O)(=O)c1ccc(Br)cc1 [Id-c, (1R,2R,3S,4S)-sodium (5Z)-6-[3-(4-bromophenylsulfonylamino)bicyclo[2.2.1]hept-2-yl]-5-hexenoate] | 130 | 5 | –
2 | Cc1ccc(S(=O)(=O)N[C@H]2[C@H]3CC[C@H](C3)[C@@H]2C/C=C\CCCC(=O)O)cc1 [Rf. Compd., reference compound] | 1 | 2 | –
3 | O=S(=O)(N[C@H]1[C@H]2CC[C@H](C2)[C@@H]1/C=C\CCCc1nnn[nH]1)c1ccccc1 [If-c, (1R,2R,3S,4S)-3-phenylsulfonylamino-2-[(1Z)-5-(5-tetrazolyl)-1-pentenyl]bicyclo[2.2.1]heptane] | > 1000 | 4 | 209
4 | O=C(O)CCC/C=C\[C@H]1[C@@H]2CC[C@@H](C2)[C@@H]1NS(=O)(=O)c1ccc(O)cc1 [Ic-c, (1R,2R,3S,4S)-sodium (5Z)-6-[3-(4-hydroxyphenylsulfonylamino)bicyclo[2.2.1]hept-2-yl]-5-hexenoate] | 150 | 6 | –
5 | O=C(O)CCC/C=C\[C@H]1[C@@H]2CC[C@@H](C2)[C@@H]1NS(=O)(=O)c1ccc(Cl)cc1 [Ie-c, (1R,2R,3S,4S)-sodium (5Z)-6-[3-(4-chlorophenylsulfonylamino)bicyclo[2.2.1]hept-2-yl]-5-hexenoate] | 300 | 5 | –
6 | O=C(O)CCC/C=C\[C@H]1[C@@H]2CC[C@@H](C2)[C@@H]1NS(=O)(=O)c1ccccc1 [Ia-c, (1R,2R,3S,4S)-sodium (5Z)-6-(3-phenylsulfonylaminobicyclo[2.2.1]hept-2-yl)-5-hexenoate] | > 1000 | 6 | 237
7 | Cc1ccc(S(=O)(=O)N[C@H]2[C@H]3CC[C@H](C3)[C@@H]2/C=C\CCCC(=O)O)cc1 [Ib-c, (1R,2R,3S,4S)-sodium (5Z)-6-[3-(p-tolylsulfonylamino)bicyclo[2.2.1]hept-2-yl]-5-hexenoate] | > 1000 | 6 | –
